Test results taken from paper PMC2375871, “Regulation of 5'-adenosine monophosphate deaminase in the freeze tolerant wood frog, Rana sylvatica” (BMC Biochemistry, 2008).
One block for each compound: values may come before it.

Tests used:
Type in all cases: biochemical, Lithobates sylvaticus
[1] = system: T1, Free AMPD (wood frog skeletal muscle, control frogs); experiment: AMP deaminase activity, […] nm absorbance, Hill fit; conditions: after Sephadex G-50 desalting, Hill coefficient 2.37, pH 7.2, 25°C, read-out: After spun columns
T1 construct: gene AMPD1; native, soluble (free) form in skeletal muscle extract of 5°C-acclimated control frogs, Sephadex G-50 desalted, not purified

[2] = system: T2, Bound AMPD (wood frog skeletal muscle, frozen frogs); experiment: AMP deaminase activity, glutamate dehydrogenase-coupled, NADH […] nm, Hill fit; conditions: Hill coefficient 1.12, pH 7.2, 25°C, no glucose, bound enzyme, read-out: S0.5 AMP
T2 construct: gene AMPD1; high phosphate form (sites not known); not purified

[3] = system: T3, Bound AMPD (wood frog skeletal muscle, control frogs); experiment: as above; conditions: Hill coefficient 1.03, pH 7.2, 25°C, no glucose, bound enzyme, read-out: S0.5 AMP
T3 construct: gene AMPD1; low phosphate form; not purified

[4] = target: T1, Free AMPD (wood frog skeletal muscle, control frogs); experiment: AMP deaminase activity, […] nm absorbance; conditions: 0.5 mM AMP, pH 7.2, 25°C, allosteric
[5] = target: T2, Bound AMPD (wood frog skeletal muscle, frozen frogs); experiment: AMP deaminase activity, glutamate dehydrogenase-coupled, NADH […] nm; conditions: activation constant (half-maximal activation, 3.42-fold), as Mg·ADP, 0.5 mM AMP, pH 7.2, 25°C, bound enzyme, allosteric
[6] = target: T3, Bound AMPD (wood frog skeletal muscle, control frogs); experiment: as above; conditions: activation constant (half-maximal activation, 1.25-fold), as Mg·ADP, 0.5 mM AMP, pH 7.2, 25°C, bound enzyme, allosteric
[7] = target: T3, Bound AMPD (wood frog skeletal muscle, control frogs); experiment: as above; conditions: as Mg·GTP, 0.5 mM AMP, pH 7.2, 25°C, bound enzyme, allosteric
[8] = target: T2, Bound AMPD (wood frog skeletal muscle, frozen frogs); experiment: as above; conditions: as Mg·GTP, 0.5 mM AMP, pH 7.2, 25°C, bound enzyme, allosteric
[9] = target: T1, Free AMPD (wood frog skeletal muscle, control frogs); experiment: AMP deaminase activity, […] nm absorbance; conditions: as Mg·GTP, 0.5 mM AMP, pH 7.2, 25°C, allosteric

- Km [1]: 1350 ± 80 µM
- Km [2]: 1500 ± 190 µM
- Km [3]: 460 ± 30 µM
Structure (SMILES): Nc1ncnc2c1ncn2[C@@H]1O[C@H](COP(=O)(O)O)[C@@H](O)[C@H]1O [AMP]

- EC50 ([4]; activation constant (half-maximal activation, 2.17-fold), as Mg·ADP): 1120 ± 150 µM
- EC50 [5]: 1140 ± 100 µM
- EC50 [6]: 3750 ± 370 µM
Structure (SMILES): Nc1ncnc2c1ncn2[C@@H]1O[C@H](COP(=O)(O)OP(=O)(O)O)[C@@H](O)[C@H]1O [Mg·ADP]

- EC50 ([4]; activation constant (half-maximal activation, 1.53-fold), as Mg·ATP): 1900 ± 30 µM
Structure (SMILES): Nc1ncnc2c1ncn2[C@@H]1O[C@H](COP(=O)(O)OP(=O)(O)OP(=O)(O)O)[C@@H](O)[C@H]1O [Mg·ATP]

- IC50 [7]: 80 ± 10 µM
- IC50 [8]: 100 ± 10 µM
- IC50 [9]: 150 ± 20 µM
Structure (SMILES): Nc1nc2c(ncn2[C@@H]2O[C@H](COP(=O)(O)OP(=O)(O)OP(=O)(O)O)[C@@H](O)[C@H]2O)c(=O)[nH]1 [Mg·GTP]
